The text below walks through data of patent publication US6455562B1, “Cyclic AMP-specific phosphodiesterase inhibitors” (Icos Corporation, priority 1999, dated 2002).

Data set [1] relates to recombinant human PDE4. The conditions noted are these: reported, prior art; read-out: reported 50% Inhibitory Concentration (IC50) with respect to inhibiting recombinant human PDE4; cited from earlier work.
The conditions of data set [2]: in vivo; cited from earlier work.
Data set [3] has as its system T1, recombinant human PDE4.
T1 construct: other: recombinant human PDE4
In words: PDE4 inhibition, IC50 using recombinant human PDE4 (charcoal separation PDE assay). Format: biochemical. The conditions noted are these: read-out: IC50 value versus human recombinant PDE4. The method, then:
The compounds of structural formula (II) were tested for an ability to inhibit PDE4. The ability of a compound to inhibit PDE4 activity is related to the IC50 value for the compound, i.e., the concentration of inhibitor required for 50% inhibition of enzyme activity. The IC50 value for compounds of structural formula (II) were determined using recombinant human PDE4. […]
Phosphodiesterase activity of the preparations was determined as follows. […] The [32P]5′-AMP or [32P]5′-GMP then was quantitatively converted to free [32P]phosphate and unlabeled adenosine or guanosine by the action of snake venom 5′-nucleotidase. […] PDE enzyme was present in quantities that yield <30% total hydrolysis of substrate (linear assay conditions). […] The reaction was stopped by addition of 200 μL of activated charcoal (25 mg/mL suspension in 0.1M NaH2PO4, pH 4) After centrifugation (750 X g for 3 minutes) to sediment the charcoal, a sample of the supernatant was taken for radioactivity determination in a scintillation counter and the PDE activity was calculated.

Structures are written as SMILES. Like-named read-outs stand apart in the source and are kept apart here.

In the case of `COc1ccc(C2CNC(=O)C2)cc1OC1CCCC1` (stereo not shown) [Rolipram], the IC50 in data set [1] was roughly 200 nM.
Take `COC(=O)N1CC(c2ccc(OC)c(OC3CCCC3)c2)C(C)(C(C)=O)C1` (stereo not shown) [formula (I)]: the IC50 in data set [1] was roughly 2 nM.
`COc1ccc([C@@H]2CNC(=O)C2)cc1OC1CCCC1` (single isomer, unassigned) [(−)-enantiomer of rolipram, R-rolipram]: the “emetic potential relative to the (+)-enantiomer (S-rolipram)” value in data set [2] was “about ten-fold more emetic”.
Regarding `COc1ccc([C@@H]2CN(Cc3ccccc3)C[C@@]2(C)c2nn[nH]n2)cc1OC1CCCC1` [Example 1], in data set [3], the IC50 stood at 7.9 µM.
